Data reported in ChEMBL document CHEMBL4813910, “Curse or Cure? A Perspective on the Developability of Aldehydes as Active Pharmaceutical Ingredients” (J Med Chem, 2020).

Columns and labels:
[1] = Half life in human plasma at 37 mg/kg, po by HPLC method; assay type: ADME, organism-based
[2] = Ratio of drug level in human erythrocytes to plasma at 20 mg/kg, iv measured over 1 hr; assay type: ADME, organism-based
[3] = Tmax in human plasma at 37 mg/kg, po by HPLC method; assay type: ADME, organism-based
[4] = AUC (0 to 24 hrs) in human plasma at 37 mg/kg, po by HPLC method; assay type: ADME, organism-based; design: time < 24 hr, route oral, dose 37 mg/kg; conditions: in vivo
[5] = Cmax in human plasma at 37 mg/kg, po by HPLC method; assay type: ADME, organism-based; design: route oral, dose 37 mg/kg
[6] = Half life in human erythrocytes at 37 mg/kg, po by HPLC method; assay type: ADME, organism-based, Erythrocyte
[7] = Tmax in human erythrocytes at 37 mg/kg, po by HPLC method; assay type: ADME, organism-based, Erythrocyte
[8] = Cmax in human erythrocytes at 37 mg/kg, po; assay type: ADME, organism-based, Erythrocyte; design: route oral, dose 37 mg/kg
[9] = AUC (0 to 24 hrs) in human erythrocytes at 37 mg/kg, po by HPLC method; assay type: ADME, organism-based, Erythrocyte; design: time < 24 hr, route oral, dose 37 mg/kg
[10] = AUC (0 to 24 hrs) in human at 20 mg/kg, iv measured over 1 hr; assay type: ADME, organism-based; design: route intravenous, time 1 hrs, dose 20 mg/kg; conditions: in vivo
[11] = Volume of distribution in human at 20 mg/kg, iv measured over 1 hr; assay type: ADME, organism-based; conditions: in vivo
[12] = Elimination half life in human at 20 mg/kg, iv measured over 1 hr; assay type: ADME, organism-based; conditions: in vivo, read-out: beta t1/2 (converted)
[13] = AUC (0 to 24 hrs) in human plasma at 2.8 g, po by liquid chromatography-tandem mass spectrometry method; assay type: ADME, organism-based; design: time < 24 hr, route oral, dose 2.8 g
[14] = Clearance in human at 2.8 g, po by liquid chromatography-tandem mass spectrometry method; assay type: ADME, organism-based; conditions: in vivo
[15] = Tmax in human erythrocytes at 2.8 g, po by liquid chromatography-tandem mass spectrometry method; assay type: ADME, organism-based, Erythrocyte
[16] = Cmax in human plasma at 2.8 g, po by liquid chromatography-tandem mass spectrometry method; assay type: ADME, organism-based; design: route oral, dose 2.8 g
[17] = Tmax in human plasma at 2.8 g, po by liquid chromatography-tandem mass spectrometry method; assay type: ADME, organism-based
[18] = Ratio of drug level in human erythrocytes to plasma at 2.8 g, po; assay type: ADME
[19] = Induction of hemoglobin modification in human at 900 mg/day
[20] = Cmax in human erythrocytes at 2.8 g, po by liquid chromatography-tandem mass spectrometry method; assay type: ADME, organism-based, Erythrocyte; design: route oral, dose 2.8 g
[21] = Central volume of distribution in human at 2.8 g, po; assay type: ADME; conditions: in vivo
[22] = Non-renal clearance in human at 0.5 g, iv; assay type: ADME; conditions: in vivo
[23] = Cmax in human at 0.5 g, iv; assay type: ADME; design: route intravenous, dose 0.5 g; conditions: in vivo
[24] = Cmax in human at 2 g, po; assay type: ADME; design: route oral, dose 2 g; conditions: in vivo
[25] = Drug excretion in human urine at 2 g, po measured within 24 hrs; assay type: ADME, organism-based; conditions: in vivo
[26] = Cmax in human serum at 2 g, po; assay type: ADME, cell-free; design: route oral, dose 2 g
[27] = Renal clearance in human at 0.5 g, iv; assay type: ADME; conditions: in vivo
[28] = Drug excretion in human urine at 0.5 g, iv measured within 24 hrs; assay type: ADME, organism-based; conditions: in vivo
[29] = Tmax in human at 2 g, po; assay type: ADME; conditions: in vivo
[30] = Protein binding in human plasma at 2 g, po; assay type: ADME, cell-free
[31] = Half life in human at 2 g, po; assay type: ADME; conditions: in vivo
[32] = Half life in human at 0.5 g, iv; assay type: ADME; conditions: in vivo
[33] = Oral bioavailability in human at 2 g; assay type: ADME, organism-based; conditions: in vivo
[34] = Tmax in human serum at 2 g, po; assay type: ADME
[35] = Total clearance in human at 0.5 g, iv; assay type: ADME; conditions: in vivo
[36] = AUC (0 to infinity) in human serum at 2 g, po; assay type: ADME, cell-free; design: route oral, time infinity, dose 2 g
[37] = Volume of distribution at steady state in human at 0.5 g, iv; assay type: ADME; conditions: in vivo

## O=Cc1c(O)cccc1OCc1ccc(C(=O)O)cc1 [TUCARESOL]
[1]
  half-life: 223 h
[2]
  Kp at 1 h: < 11.2
[3]
  Tmax: 7.5 h
[4]
  AUC: 62 µM·h
[5]
  Cmax: 271 µM
[6]
  half-life: 120 h
[7]
  Tmax: 24 h
[8]
  Cmax: 2460 µM
[9]
  AUC(0-t) at 24 h: 579 µM·h

## O=Cc1c(O)cccc1OCCCCC(=O)O [VELARESOL]
[10]
  AUC: 5.18 µM·h
[11]
  Vd: 0.067 L/kg
[2]
  Kp at 1 h: 14.3
[12]
  half-life: 2.2 h

## CC(C)n1nccc1-c1ncccc1COc1cccc(O)c1C=O [VOXELOTOR]
[13]
  AUC(0-t) at 24 h: 1280 µM·h
[14]
  CL/F: 5.4 mL/h/kg
[15]
  Tmax: 17.1 h
[16]
  Cmax: 18.7 µM
[17]
  Tmax: 7.1 h
[18]
  Kp: 67
[19]
  Activity: 40%
[20]
  Cmax: 1110 µM
[21]
  Vc: 5.2 L/kg

## SPIRAMYCIN
[22]
  CL: 887 mL/min
[23]
  Cmax: 2.7 µM
[24]
  Cmax: 2 µM
[25]
  Drug excretion: 4.4%
[26]
  Cmax: 3.7 µM
[27]
  CL: 144.2 mL/min
[28]
  Drug excretion: 13.9%
[29]
  Tmax: 4 h
[30]
  PPB: 48%
[31]
  t1/2: 6.23 h
[32]
  t1/2: 5.54 h
[33]
  F: 10%
[34]
  Tmax: 3.3 h
[35]
  CL: 1.14 L/min
[36]
  AUC: 12 µM·h
[37]
  Vdss: 5.5 L/kg
